{"source": "patent US20060193776A1", "about": "“Screening methods employing zebrafish and the blood brain barrier” (priority 2004, published 2006)", "key": {"[1]": {"conditions": "clinical, humans; cited from earlier work"}, "[2]": {"test_system": "blood brain barrier of zebrafish larvae", "assay": "Dye exclusion experiments: dye injected into pericardial region, fluorescence intensity in the brain quantified", "description": "Evans Blue dye (961 Da) was used to investigate the presence of BBB in zebrafish larvae. […] In rodents, Evans Blue leakage is observed following brain trauma.\n1) 2% Evans Blue in 0.9% saline was injected into pericardial sac of larvae from 2 days post-fertilisation (d.p.f.) to 1 month old. 0.9% saline was injected as a control.\n2) The larvae were left to develop for 6 hours to allow the dye to penetrate from bloodstream into tissues.\n3) The larvae were viewed under fluorescent dissecting scope (TRITC filter) to ensure that dye was present in blood vessels.\n5) They were embedded in O.C.T. (Optimal Cutting Temperature compound) and 10 μm frozen sections were taken in parasaggital plane.\n6) Midline sections were viewed on fluorescent microscope (TRITC filter) at ×40 magnification. Images were taken of Evans Blue injected and saline injected samples.\n7) Fluorescent intensity was measured in 3 regions of control and Evans Blue injected samples using AnalySis software. Mean fluorescent intensity was calculated for each age group.\nInjection stocks of 2% evans blue in 0.9% saline and a 10% sodium fluorescein in 0.9% saline were prepared and stored at 4° C. Larvae were anaesthetised by immersion in 0.2 mg/ml 3-amino benzoic acid (MS222) prior to being immobilised and oriented in 3% methyl cellulose in embryo medium in a lateral position such that the heart was accessible. Larvae and juveniles from 2 days post-fertilisation (d.p.f.) to 30 d.p.f. were injected into the pericardial region with 0.5 to 2 nl of dye or saline control, depending on age, using standard zebrafish egg microinjection apparatus (Westerfield, 1995). Fish were transferred to fresh embryo medium to recover from anaesthesia, then viewed using a fluorescence dissecting microscope at 1 hour intervals to determine the time of uptake of the dye into the circulation and the time at which dye had permeated from the circulation into non-vascular body tissue. Dye and saline injected larvae were anaesthetised at 4 hours and 6 hours after injection and fixed in 4% paraformaldehyde in PBS. 10 larvae per age group and injection treatment were embedded in Sakura Tissue-Tek OCT Compound (Bayer, Newbury, UK) and frozen parasagittal sections were cut at 10 μm thickness.\nSections were visualised without mounting medium by fluorescence microscopy on an Olympus BX51 microscope. Three midline sagittal sections from each larva were identified and images were captured using a ColorView camera (Olympus) and AnalySis software (Soft Imaging System). The fluorescence intensity within the brain was quantified for each midline section of each larva in each treatment group using colour threshold and area measurements in AnalySis. Mean values, standard deviations and T-tests were calculated using Excel software (Microsoft Office)."}, "[3]": {"conditions": "mammals; cited from earlier work"}, "zebrafish": {"test_system": "zebrafish", "assay": "DMSO tolerance of zebrafish", "format": "in vivo", "conditions": "added to the fish water", "from_the_text": "Zebrafish are also DMSO (dimethyl sulphoxide) tolerant. This is important as DMSO is used as a solvent to dissolve many drugs. The inventors have established that zebrafish can tolerate 1% DMSO. Thus, a candidate drug or other test substance may be dissolved in DMSO and administered to zebrafish by adding to the fish water to give a final concentration of DMSO of at least up to 1%. This is employed in various preferred aspects and embodiments of the present invention."}, "[4]": {"conditions": "rodents; cited from earlier work"}}}
{"compound": "Cc1ccc(/C(=C\\CN2CCCC2)c2ccccn2)cc1", "note": "[triprolidine]", "values": [{"measurement": "sedating or non-sedating antihistamine", "setting": "[1]", "result": "sedating"}]}
{"compound": "CCOC(=O)N1CCC(=C2c3ccc(Cl)cc3CCc3cccnc32)CC1", "note": "[loratadine]", "values": [{"measurement": "sedating or non-sedating antihistamine", "setting": "[1]", "result": "non-sedating"}]}
{"compound": "O=C([O-])c1ccccc1-c1c2ccc(=O)cc-2oc2cc([O-])ccc12.[Na+].[Na+]", "note": "[sodium fluorescein]", "values": [{"measurement": "day from which excluded from the brain", "setting": "[2]; peripheral injection", "result": 10, "unit": "days"}, {"measurement": "day until which it permeates into the brain", "setting": "[2]; peripheral injection", "result": 8, "unit": "days"}, {"measurement": "age at which fluorescent intensity in the brain decreases sharply (exclusion from the brain)", "setting": "[2]; peripheral injection, versus saline controls", "result": 10, "unit": "d.p.f."}]}
{"compound": "rhodamine 123", "values": [{"measurement": "age at which fluorescent intensity in the brain decreases sharply (exclusion from the brain)", "setting": "[2]; zebrafish, in vivo", "result": 8, "unit": "d.p.f."}]}
{"compound": "Clc1ccc2c(c1)CCc1cccnc1C2=C1CCNCC1", "note": "[desloratadine]", "values": [{"measurement": "crosses the BBB", "setting": "[3]", "result": "does not cross the BBB"}]}
{"compound": "OCCOCCN1CCN(C(c2ccccc2)c2ccc(Cl)cc2)CC1", "note": "(stereo not drawn) [hydroxyzine]", "values": [{"measurement": "sedating or non-sedating antihistamine", "setting": "[1]", "result": "sedating"}]}
{"compound": "C[S+](C)[O-]", "note": "[DMSO, dimethyl sulphoxide]", "values": [{"measurement": "concentration tolerated by zebrafish", "setting": "zebrafish", "result": 1, "unit": "%"}]}
{"compound": "Cc1cc(-c2ccc(/N=N/c3ccc4c(S(=O)(=O)O)cc(S(=O)(=O)O)c(N)c4c3O)c(C)c2)ccc1/N=N/c1ccc2c(S(=O)(=O)O)cc(S(=O)(=O)O)c(N)c2c1O", "note": "[Evans Blue]", "values": [{"measurement": "fluorescence in the brain", "setting": "[2]; 3 d.p.f., dye injected into pericardial sac, 6 hours", "result": "High level of fluorescence in the brain"}, {"measurement": "brain fluorescence compared with saline injected samples", "setting": "[2]; 5 d.p.f., dye injected into pericardial sac, 6 hours", "result": "no different from saline injected samples"}, {"measurement": "change of fluorescent intensity in the brain with age", "setting": "[2]; FIG. 2, days post-fertilisation", "result": "age dependent decrease"}, {"measurement": "day from which excluded from the brain", "setting": "[2]; peripheral injection", "result": 5, "unit": "days"}, {"measurement": "exclusion from the brain", "setting": "[4]", "result": "excluded from the brain if the BBB is intact"}]}
{"compound": "O=C(O)COCCN1CCN(C(c2ccccc2)c2ccc(Cl)cc2)CC1", "note": "(stereo not drawn) [cetirizine]", "values": [{"measurement": "sedating or non-sedating antihistamine", "setting": "[1]", "result": "non-sedating"}]}
